The source of these data is patent US20060183759A1, “Tissue transglutaminase inhibitors” (priority 2004, published 2006).

Where a name gives a salt, the structure may show the parent alone. Read-outs that look alike come from different tables or passages of the source.

The target in assay [1] is T1, transglutaminase 2 (TGase 2) (Homo sapiens, UniProt P21980).
T1 sequence (P21980 1-687): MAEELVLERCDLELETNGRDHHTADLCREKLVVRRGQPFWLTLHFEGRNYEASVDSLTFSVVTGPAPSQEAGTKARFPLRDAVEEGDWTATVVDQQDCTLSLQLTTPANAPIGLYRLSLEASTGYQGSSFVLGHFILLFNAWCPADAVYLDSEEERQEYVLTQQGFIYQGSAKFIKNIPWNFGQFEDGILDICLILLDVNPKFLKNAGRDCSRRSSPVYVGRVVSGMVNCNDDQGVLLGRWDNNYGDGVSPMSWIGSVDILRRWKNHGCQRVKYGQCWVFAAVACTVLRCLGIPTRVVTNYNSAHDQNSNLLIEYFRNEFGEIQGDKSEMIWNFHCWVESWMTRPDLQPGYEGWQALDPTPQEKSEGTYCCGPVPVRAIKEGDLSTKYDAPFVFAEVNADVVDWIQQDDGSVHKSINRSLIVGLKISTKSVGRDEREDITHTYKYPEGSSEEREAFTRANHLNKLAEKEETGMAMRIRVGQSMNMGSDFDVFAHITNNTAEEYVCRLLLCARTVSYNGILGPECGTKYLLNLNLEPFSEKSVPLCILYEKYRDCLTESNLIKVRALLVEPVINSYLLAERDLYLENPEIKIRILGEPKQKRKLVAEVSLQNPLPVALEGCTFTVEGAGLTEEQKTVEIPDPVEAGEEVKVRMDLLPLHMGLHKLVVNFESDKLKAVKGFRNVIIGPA
Kind of assay: TGase 2 transpeptidase fluorescence assay: incorporation of KXD into N,N-dimethylated-casein (Std and FPC formats). Particulars: for TGase 2 inhibitory activity, SAR comment in words (relative to parent compound): qualitative comparison. In kind it is biochemical. As for the experimental part:
Transpeptidase activity was monitored as the increase in fluorescence intensity (FI) that accompanies incorporation of the dansylated Lys derivative, α-N-Boc-Lys-CH2-CH2-dansyl (KXD), into the protein substrate, N,N-dimethylated-casein (NMC).
Therefore, a method was used in which full progress curves (FPC) were recorded for the TGase-catalyzed reaction of KXD with NMC in the presence of inhibitor (Table 1-4). Reactions were initiated by enzyme addition to a solution of substrate and inhibitor. […] From such progress curves, IC50 values were calculated using the following equation: IC50=[I]/{(vc/vss)−1}. Progress curves recorded at several inhibitor concentrations were used to determine FPC IC50 values (Table 1-4).

The target in assay [2] is T1, transglutaminase 2 (TGase 2). Described as above. The assay is classed as biochemical. Particulars: standard format (Std): reactions terminated after 60 min, FI recorded, four-parameter fit.
Where [3] appears, read: full progress curves (FPC), IC50=[I]/{(vc/vss)−1}, from steady-state velocity, read-out: IC50 (μM, FPC).
Setting [4] is: summary of FPC values, read-out: FPC IC50 values.

For `NNC(=O)CSc1nc2scc(-c3ccccc3)c2c(=O)n1-c1cccc(F)c1` [986-19, [3-(3-Fluorophenyl)-4-oxo-5-phenyl-3,4-dihydrothieno[2,3-d]pyrimidin-2-ylsulfanyl]acetic acid hydrazide], the IC50 in assay [1] (setting [3]) was 0.18 µM; in assay [1] (setting [4]), less than 0.16 µM; in assay [2], 0.25 µM.
For `NNC(=O)CSc1nc2scc(-c3ccccc3)c2c(=O)n1-c1cc(F)ccc1F` [986-26, [3-(2,5-Difluorophenyl)-4-oxo-5-phenyl-3,4-dihydrothieno[2,3-d]pyrimidin-2-ylsulfanyl]acetic acid hydrazide], the IC50 in assay [1] (setting [3]) was found to be 0.23 µM; in assay [2] it was 0.59 µM.
Taken in the same sequence, the figures for `NNC(=O)CSc1nc2scc(-c3ccc(F)cc3)c2c(=O)n1-c1ccccc1` [986-08, [5-(4-Fluorophenyl)-4-oxo-3-phenyl-3,4-dihydrothieno[2,3-d]pyrimidin-2-ylsulfanyl]acetic acid hydrazide] were 0.29 µM and 0.8 µM.
Regarding `COc1cccc(-c2csc3nc(SCC(=O)NN)n(-c4cccc(F)c4)c(=O)c23)c1` [986-32, [3-(3-Fluorophenyl)-5-(3-methoxyphenyl)-4-oxo-3,4-dihydrothieno[2,3-d]pyrimidin-2-ylsulfanyl]acetic acid hydrazide], the results for the IC50 in assay [1] (setting [3]), in assay [1] (setting [4]) and in assay [2] were 0.14 µM, less than 0.16 µM and 0.21 µM, respectively.
Take `NNC(=O)CSc1nc2sc3c(c2c(=O)n1-c1cccc(F)c1)C(c1ccccc1)CCC3` (centres unmarked) [986-44, [3-(3-Fluorophenyl)-4-oxo-5-phenyl-3,4,5,6,7,8-hexahydrobenzo[4,5]thieno[2,3-d]pyrimidin-2-ylsulfanyl]acetic acid hydrazide]: the figures for the IC50 in assay [1] (setting [3]) and in assay [2] were 0.17 µM and 0.93 µM, respectively.
For `CCN(CC)CCCOc1ccccc1-c1csc2nc(SCC(=O)NN)n(-c3cccc(F)c3)c(=O)c12` [986-35, [5-[2-(3-Diethylaminopropoxy)phenyl]-3-(3-fluorophenyl)-4-oxo-3,4-dihydrothieno[2,3-d]pyrimidin-2-ylsulfanyl]acetic acid hydrazide], in assay [1], the “TGase 2 inhibitory activity, SAR comment in words (relative to parent compound)” value is listed as “decreased inhibitory activity”. The IC50 in assay [2] is 4.8 µM.
Regarding `NNC(=O)CSc1nc2scc(-c3ccccc3)c2c(=O)n1-c1ccc(F)cc1` [986-07, [3-(4-Fluorophenyl)-4-oxo-5-phenyl-3,4-dihydrothieno[2,3-d]pyrimidin-2-ylsulfanyl]acetic acid hydrazide], the results for the 50% inhibitory concentration (IC50) in assay [1] (setting [3]) and in assay [2] were 0.32 µM and 1.3 µM, respectively.
For `NNC(=O)COc1nc2scc(-c3ccccc3)c2c(=O)n1-c1ccccc1` [986-30, (4-Oxo-3,5-diphenyl-3,4-dihydrothieno[2,3-d]pyrimidin-2-yloxy)acetic acid hydrazide], the “TGase 2 inhibitory activity, SAR comment in words (relative to parent compound)” value in assay [1] is “decreased activity”. For the same molecule, in assay [2], half-maximal inhibition (IC50) required 4.5 µM.
Regarding `CN(CC(=O)NN)c1nc2scc(-c3ccccc3)c2c(=O)n1-c1ccccc1` [986-06, [Methyl-(4-oxo-3,5-diphenyl-3,4-dihydrothieno[2,3-d]pyrimidin-2-yl) -amino]acetic acid hydrazide], the IC50 in assay [2] is greater than 20 µM.
On to `COc1cccc(-n2c(SCC(=O)NN)nc3scc(-c4ccccc4)c3c2=O)c1` [986-21, [3-(3-Methoxyphenyl)-4-oxo-5-phenyl-3,4-dihydrothieno[2,3-d]pyrimidin-2-ylsulfanyl]acetic acid hydrazide], for which the IC50 was 0.47 µM in assay [1] (setting [3]) and 0.82 µM in assay [2].
The molecule `O=C(O)CSc1nc2scc(-c3ccc(F)cc3)c2c(=O)n1-c1ccc(F)cc1` [986-54, [3,5-Bis-(4-fluorophenyl)-4-oxo-3,4-dihydrothieno[2,3-d]pyrimidin-2-ylsulfanyl]acetic acid] came in with an IC50 in assay [2] greater than 20 µM.
On to `NNC(=O)CSc1nc2scc(-c3ccccc3)c2c(=O)n1C1CCCCC1` [986-17, (3-Cyclohexyl-4-oxo-5-phenyl-3,4-dihydrothieno[2,3-d]pyrimidin-2-ylsulfanyl)acetic acid hydrazide], for which it took 2.6 µM to reach half-maximal inhibition in assay [2] (IC50).
The same measure, in the same setting: under `CN(N)C(=O)CSc1nc2scc(-c3ccc(F)cc3)c2c(=O)n1-c1ccc(F)cc1` [986-50, [3,5-Bis-(4-fluorophenyl)-4-oxo-3,4-dihydrothieno[2,3-d]pyrimidin-2-ylsulfanyl]acetic acid N-methylhydrazide] stands greater than 20 µM.
Turning to `NNC(=O)CSc1nc2scc(-c3ccccc3)c2c(=O)n1-c1ccccc1F` [986-18, [3-(2-Fluorophenyl)-4-oxo-5-phenyl-3,4-dihydrothieno[2,3-d]pyrimidin-2-ylsulfanyl]acetic acid hydrazide], the figures for the IC50 in assay [1] (setting [3]) and in assay [2] were 0.16 µM and 0.5 µM, respectively.
Molecule `CNC(=O)CSc1nc2scc(-c3ccc(F)cc3)c2c(=O)n1-c1ccc(F)cc1` [986-52, 2-[3,5-Bis-(4-fluorophenyl)-4-oxo-3,4-dihydrothieno[2,3-d]pyrimidin-2-ylsulfanyl]-N-methylacetamide] came in with an IC50 in assay [2] greater than 20 µM.
Turning to `Cc1sc2nc(SCCC(=O)NN)n(-c3ccccc3)c(=O)c2c1-c1ccccc1` [986-22, 3-(6-Methyl-4-oxo-3,5-diphenyl-3,4-dihydrothieno[2,3-d]pyrimidin-2-ylsulfanyl)propionic acid hydrazide], in assay [1], the “TGase 2 inhibitory activity, SAR comment in words (relative to parent compound)” value is given as “diminished activity”. In assay [2], this molecule gave an IC50 of 1.3 µM.
The molecule `COc1ccccc1-n1c(SCC(=O)NN)nc2scc(-c3ccccc3)c2c1=O` [986-20, [3-(2-Methoxyphenyl)-4-oxo-5-phenyl-3,4-dihydrothieno[2,3-d]pyrimidin-2-ylsulfanyl]acetic acid hydrazide] came in with an IC50 in assay [2] of 2 µM.
On to `NNC(=O)CSc1nc2scc(-c3ccccc3)c2c(=O)n1-c1ccccc1` [986-01, (4-Oxo-3,5-diphenyl-3,4-dihydro-thieno[2,3-d]pyrimidin-2-ylsulfanyl)acetic acid hydrazide], for which the IC50 in assay [1] (setting [3]) amounted to 0.25 µM; in assay [2] it was 0.8 µM.
In the case of `NNC(=O)CSc1nc2sc(-c3ccccc3)cc2c(=O)n1-c1ccccc1` [986-29, (4-Oxo-3,6-diphenyl-3,4-dihydrothieno[2,3-d]pyrimidin-2-ylsulfanyl)acetic acid hydrazide], in assay [1], the “TGase 2 inhibitory activity, SAR comment in words (relative to parent compound)” value is reported as “loss of inhibitory activity”. In assay [2], this molecule gave an IC50 greater than 20 µM.
Regarding `NCC(=O)CSc1nc2scc(-c3ccccc3)c2c(=O)n1-c1cccc(F)c1` [986-56, 2-(3-Amino-2-oxo-propylsulfanyl)-3-(3-fluorophenyl)-5-phenyl-3H-thieno[2,3-d]pyrimidin-4-one hydrochloride], in assay [2], the concentration for half-maximal inhibition (IC50) is 5.3 µM.
On the same count and under the same terms, under `NNC(=O)CSc1nc2scc(-c3ccccc3)c2c(=O)n1-c1ccccc1Cl` [986-23, [3-(2-Chlorophenyl)-4-oxo-5-phenyl-3,4-dihydrothieno[2,3-d]pyrimidin-2-ylsulfanyl]acetic acid hydrazide] stands 1.8 µM.
As for `NNC(=O)CSc1nc2scc(-c3ccccc3)c2c(=O)n1-c1cc(F)cc(F)c1` [986-27, [3-(3,5-Difluorophenyl)-4-oxo-5-phenyl-3,4-dihydrothieno[2,3-d]pyrimidin-2-ylsulfanyl]acetic acid hydrazide], the IC50 in assay [1] (setting [3]) amounted to 0.22 µM; in assay [2], 0.48 µM.
With `NNC(=O)CSc1nc2ccccc2c(=O)n1-c1ccccc1` [986-03, (4-Oxo-3-phenyl-3,4-dihydroquinazolin-2-ylsulfanyl)acetic acid hydrazide], in assay [1], the “TGase 2 inhibitory activity, SAR comment in words (relative to parent compound)” value is listed as “decreased activity”. Half-maximal inhibition in assay [2] (IC50) required 18 µM.
Take `NNC(=O)CSc1nc2scc(-c3ccc(F)cc3)c2c(=O)n1-c1ccc(F)cc1` [986-09, [3,5-Bis-(4-fluorophenyl)-4-oxo-3,4-dihydrothieno[2,3-d]pyrimidin-2-ylsulfanyl]acetic acid hydrazide]: the 50% inhibitory concentration (IC50) was 0.67 µM in assay [1] (setting [3]) and 1.5 µM in assay [2].
`COc1ccc(-n2c(SCC(=O)NN)nc3scc(-c4ccccc4)c3c2=O)cc1` [986-15, [3-(4-Methoxyphenyl)-4-oxo-5-phenyl-3,4-dihydrothieno[2,3-d]pyrimidin-2-ylsulfanyl]acetic acid hydrazide] had a concentration for half-maximal inhibition (IC50) in assay [2] of 2.1 µM.
In turn, `NNC(=O)CSc1nc2scc(-c3ccccc3)c2c(=O)n1-c1cccc(Cl)c1` [986-24, [3-(3-Chlorophenyl)-4-oxo-5-phenyl-3,4-dihydrothieno[2,3-d]pyrimidin-2-ylsulfanyl]acetic acid hydrazide] gave an IC50 in assay [2] of 1.5 µM.

As a reminder, the IC50 is the concentration that gives 50% inhibition.
